{"source": "patent US11377452B2", "about": "“Glutamate transporter activators and methods using same” (DREXEL UNIVERSITY, priority 2017, dated 2022)", "key": {"[1]": {"molecular_target": "T1, EAAT2 (Homo sapiens, UniProt P43004)", "T1 construct": "expressed in transfected cells; host or cells: COS-7", "T1 sequence (P43004 whole entry)": "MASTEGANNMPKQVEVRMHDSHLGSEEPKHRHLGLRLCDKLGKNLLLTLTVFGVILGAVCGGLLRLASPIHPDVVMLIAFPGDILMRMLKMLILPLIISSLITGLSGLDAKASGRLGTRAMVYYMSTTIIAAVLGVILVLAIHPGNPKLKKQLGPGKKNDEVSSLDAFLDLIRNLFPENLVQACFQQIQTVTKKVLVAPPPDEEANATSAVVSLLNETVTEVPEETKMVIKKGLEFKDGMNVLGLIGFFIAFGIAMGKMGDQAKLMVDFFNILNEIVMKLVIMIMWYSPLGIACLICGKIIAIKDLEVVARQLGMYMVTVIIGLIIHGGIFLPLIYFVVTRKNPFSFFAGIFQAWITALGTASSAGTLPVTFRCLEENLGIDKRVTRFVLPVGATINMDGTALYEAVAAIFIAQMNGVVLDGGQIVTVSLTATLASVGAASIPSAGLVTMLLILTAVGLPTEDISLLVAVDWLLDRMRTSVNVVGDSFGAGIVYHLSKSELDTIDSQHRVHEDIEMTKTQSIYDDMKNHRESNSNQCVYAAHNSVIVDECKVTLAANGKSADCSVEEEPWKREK", "experiment": "Dose-response glutamate uptake in COS-7 cells transfected with EAAT2", "type": "cell-based", "conditions": "for kind of modulation of EAAT2 glutamate uptake in dose-response assays: COS-7 cells expressing EAAT2", "description": "(§1) COS-7 cells were maintained in DMEM with 10% fetal calf serum under 5% CO2. Transfection with empty vector pCMV-5 was used to control for the level of endogenous uptake of radiolabeled substrate in each experimental condition. The specificity of the effect of the compounds was investigated in COS-7 cells transiently transfected with glutamate transporter subtypes EAAT1-3 and monoamine transporters hNET (human noradrenaline transporter), hDAT (dopamine transporter), and hSERT (serotonin transporter).\n(§2) For glutamate uptake assays, subconfluent COS-7 cells were transfected with 0.5 μg of plasmid DNA per well using TransIT-LT1 transfection reagent (Mirus Bio LLC, Madison, Wis.) and plated at a density of ˜100 000 cells per well in 24-well tissue culture plates. For monoamine uptake assays, cells were transfected 0.1 μg of DNA per well as above and plated at a density of 10 000 cells per well in 96-wells plates.\nUptake reactions were initiated by the addition of 50 nM ^3H-L-glutamate, serotonin, dopamine, or noradrenaline, as appropriate.\nAll reactions were carried out for 10 min; then, uptake was terminated by removal of solution, followed by two washes with PBSCM. Cells in 24-well plates were lysed with 1% SDS/0.1 M NaOH. Lysate was transferred to scintillation vials containing 3 mL of scintillation fluid, and radioactivity was quantified in an LS 6500 scintillation counter (Beckman Coulter, Brea, Calif.). For 96-well plates, scintillation fluid was added to each well, and the plate was counted in a Wallac M50 microbeta scintillation analyzer."}, "[2]": {"tested_on": "NMDA receptors", "experiment": "NMDA-induced calcium response, calcium imaging in cultured cortical neurons", "type": "cell-based, mouse", "conditions": "100 μM NMDA with 3 μM glycine, no Mg2+; AP-V at 40 μM", "description": "To determine whether the compounds have effects on the function of NMDA receptors, calcium imaging recordings from cultured cortical neurons were performed as described previously (Nicolai, et al., 2010, Cell Death Dis. 1:e33).\nPrimary cortical neurons were obtained from the cerebral cortex of neonatal (P1 or P2) C57BL/6 mice, plated at a density of 3000 cells/12 mm round coverslip, and cultured in medium containing Neurobasal A, fetal calf serum (2%), heat-inactivated horse serum (2%), L-glutamax-1 (0.2 mM), and B-27 supplement (2%). Cells were maintained at 37° C. in a humidified atmosphere containing 5% CO2. The calcium imaging experiments were conducted on DIV 1.\nRecordings were performed in living neurons, as described (Xia, et al., 2014, J. Physiol. 592:3443-3461). Briefly, cultured neurons were loaded with a Fura-2 calcium dye in Tyrode's solution containing (in mM) 140 NaCl, 5 KCl, 2 CaCl2, 1 MgCl2, 10 HEPES, and 5.6 glucose. Coverslips were mounted in the imaging chamber (model RC-25, Warner Instruments, Hamden, Conn.) and continuously perfused with Tyrode's solution containing 0.5 μM tetrodotoxin. Images were acquired in 3 s intervals at room temperature (20-22° C.) using an Olympus inverted microscope equipped with a CCD camera (Hamamatsu ORCA-03G, Japan). The fluorescence ratio was determined as the fluorescence intensities excited at 340 and 380 nm with background subtracted. 100 μM NMDA was applied in the presence of 3 μM glycine and in the absence of Mg^2+. The NMDA receptor antagonist AP-V (40 μM) was applied to certify that the result was specifically the NMDA-induced calcium response. Vehicle, GT949, or GT951 was applied, and calcium changes were recorded.\nRecordings were performed in living neurons, as described (Xia, et al., 2014, J. Physiol. 592:3443-3461). Briefly, cultured neurons were loaded with Fura-2 calcium dye in Hank's balanced salt solution (HBSS). 100 μM NMDA was applied in the presence of 3 μM glycine and in the absence of Mg^2+. […] Vehicle, GT949, or GT951 was applied, and calcium currents were recorded."}, "[3]": {"molecular_target": "T1, EAAT2", "experiment": "Kinetic assay of L-glutamate uptake in EAAT2-transfected COS-7 cells", "type": "cell-based", "conditions": "GT949 and GT951 pre-incubated at 1 nM", "description": "as §1, §2\n(§3) All reactions were carried out for 10 min; then, uptake was terminated by removal of solution, followed by two washes with PBSCM. […] Lysate was transferred to scintillation vials containing 3 mL of scintillation fluid, and radioactivity was quantified in an LS 6500 scintillation counter (Beckman Coulter, Brea, Calif.). For 96-well plates, scintillation fluid was added to each well, and the plate was counted in a Wallac M50 microbeta scintillation analyzer."}, "[4]": {"molecular_target": "T2, EAAT1 (Homo sapiens, UniProt P43003)", "T2 construct": "expressed in transfected cells; host or cells: COS-7", "T2 sequence (P43003 whole entry)": "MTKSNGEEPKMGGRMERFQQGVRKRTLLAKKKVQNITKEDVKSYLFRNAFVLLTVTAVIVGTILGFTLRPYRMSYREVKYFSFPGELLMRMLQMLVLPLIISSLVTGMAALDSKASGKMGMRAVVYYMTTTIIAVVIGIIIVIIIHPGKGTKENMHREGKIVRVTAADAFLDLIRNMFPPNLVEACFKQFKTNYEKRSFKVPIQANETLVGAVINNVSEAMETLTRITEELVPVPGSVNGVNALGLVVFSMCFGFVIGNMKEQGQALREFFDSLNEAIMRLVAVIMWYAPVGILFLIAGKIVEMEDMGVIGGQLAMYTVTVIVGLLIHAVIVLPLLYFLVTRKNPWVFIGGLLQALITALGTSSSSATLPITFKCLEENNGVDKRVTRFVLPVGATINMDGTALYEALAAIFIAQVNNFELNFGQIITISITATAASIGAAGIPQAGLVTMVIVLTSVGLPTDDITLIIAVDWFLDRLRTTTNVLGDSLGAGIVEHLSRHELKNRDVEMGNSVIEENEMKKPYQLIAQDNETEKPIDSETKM", "experiment": "Dose-response glutamate uptake in COS-7 cells transfected with EAAT1", "type": "cell-based", "description": "as §1, §2\n[…]. […]\nas §3"}, "[5]": {"molecular_target": "T3, EAAT3 (Homo sapiens, UniProt P43005)", "T3 construct": "expressed in transfected cells; host or cells: COS-7", "T3 sequence (P43005 1-524)": "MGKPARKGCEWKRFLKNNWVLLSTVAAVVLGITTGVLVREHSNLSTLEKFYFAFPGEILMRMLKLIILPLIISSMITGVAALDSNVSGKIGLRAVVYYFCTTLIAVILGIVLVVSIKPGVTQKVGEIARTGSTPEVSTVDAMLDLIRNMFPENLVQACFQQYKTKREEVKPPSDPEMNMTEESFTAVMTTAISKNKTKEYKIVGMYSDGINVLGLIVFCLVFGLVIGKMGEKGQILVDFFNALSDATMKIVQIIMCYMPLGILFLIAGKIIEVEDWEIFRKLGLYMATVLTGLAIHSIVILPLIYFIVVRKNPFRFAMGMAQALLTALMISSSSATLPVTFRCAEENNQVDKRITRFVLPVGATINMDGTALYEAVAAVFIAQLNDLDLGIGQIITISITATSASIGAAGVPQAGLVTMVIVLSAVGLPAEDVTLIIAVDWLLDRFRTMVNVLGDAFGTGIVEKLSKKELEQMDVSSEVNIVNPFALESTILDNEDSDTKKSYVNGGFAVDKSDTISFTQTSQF", "experiment": "Dose-response glutamate uptake in COS-7 cells transfected with EAAT3", "type": "cell-based", "description": "as §1, §2\n[…]. […]\nas §3"}, "[6]": {"tested_on": "cultured astrocytes", "experiment": "Glutamate uptake in cultured astrocytes", "type": "cell-based, rat", "description": "Glia was prepared and cultured according to Shimizu, et al., 2011, J. Visualized Exp. e3257 with modifications. Briefly, cerebral cortices from 2-4 day old Holtzman rat pups were dissected under sterile conditions and placed in 60 mm dishes containing dissection medium (in mM: 16 glucose, 22 sucrose, 135 NaCl, 5 KCl, 1 Na2HPO4, 0.22 KH2PO4, 10 HEPES, pH 7.4, Osmolarity 310+10 mOsm). Tissue was minced with curved scissors and digested in 0.25% trypsin for 15 min. Trypsin activity was ended by transferring tissue pieces to another vial with dissection medium. Tissue was then repeatedly passed through a serological plastic pipette until it was dissociated by trituration in the presence of 60 μg/mL DNase. Cells were pelleted by centrifugation for 15 min at 280 g and resuspended in glia plating medium (90% DMEM, 10% FBS, and 50 μg/mL gentamicin) and transferred to culture flasks kept in a 37° C. incubator (5-10% CO2). After growth for 10 days in vitro (DIV), cells were detached with 0.05% trypsin, centrifuged, and plated at a density of 10 000 cells/well in polylysine-coated 96-well plates. Plates were grown for 14 DIV before uptake assays were performed.\nAssays were performed as described (Timple, et al., 2013, J. Nat. Prod. 76:1889-1895). Briefly, using an Elx50 Biotek plate washer (Winooski, Vt., USA), cells were washed in PBS-CM buffer. For dose-response assays, vehicle and several concentrations of the compounds (0.01 nM to 1 μM) were added and incubated for 10 min at 37° C. Uptake assays were initiated by addition of 50 nM L-[^3H]-glutamate, and incubation was carried on for 10 min at room temperature. Nonspecific uptake was obtained in the presence of 10 μM DL-TBOA.\nReactions were finished by washing the plates twice with PBS-CM and the addition of 100 μL of scintillation fluid to each well. Radioactivity was counted in a microplate scintillation and luminescence counter (Wallac, Shelton, Conn., USA)."}}, "data": [{"molecule": "C=CCN1CC(c2nc3ccccc3n2CCCOc2ccc(C(C)CC)cc2)CC1=O", "note": "(stereo not drawn) [GT922, 1-allyl-4-(1-(3-(4-(sec-butyl)phenoxy)propyl)-1H-benzo[d]imidazol-2-yl)pyrrolidin-2-one]", "values": [{"measurement": "kind of modulation of EAAT2 glutamate uptake in dose-response assays", "setting": "[1]", "value": "inhibitors"}]}, {"molecule": "C=CCN1CC(c2nc3ccccc3n2CCCCOc2ccc(Cl)c(C)c2)CC1=O", "note": "(stereo not drawn) [GT939, 1-allyl-4-(1-(4-(4-chloro-3-methylphenoxy)butyl)-1H-benzo[d]imidazol-2-yl)pyrrolidin-2-one]", "values": [{"measurement": "effect on NMDA-induced calcium response", "setting": "[2]", "value": "no effects"}, {"measurement": "effect on Vmax of transport", "setting": "[3]", "value": "increased Vmax"}, {"measurement": "kind of modulation of EAAT2 glutamate uptake in dose-response assays", "setting": "[1]", "value": "PAMs"}, {"measurement": "EC50", "setting": "[1]; COS-7 cells transfected with EAAT2, compound 10 min 37 °C, 50 nM 3H-L-glutamate, mean±SEM, read-out: EC50 (ED50) of enhancement of EAAT2-mediated glutamate transport", "value": "0.7 ± 0.2", "unit": "nM"}, {"measurement": "effect on EAAT1-mediated glutamate transport", "setting": "[4]", "value": "no effect"}, {"measurement": "effect on EAAT3-mediated glutamate transport", "setting": "[5]", "value": "no effect"}]}, {"molecule": "NC(CCCP(=O)(O)O)C(=O)O", "note": "(racemic) [AP-V, (DL)-2-amino-5-phosphonovaleric acid, reference compound]", "values": [{"measurement": "effect on NMDA-induced calcium response", "setting": "[2]", "value": "drastically attenuated"}]}, {"molecule": "Cc1cc(C)c2cc(C(c3nnnn3CCc3ccccc3)N3CCN(C(=O)c4ccco4)CC3)c(=O)[nH]c2c1", "note": "(stereo not drawn) [GT996, 3-((4-(furan-2-carbonyl)piperazin-1-yl)(1-phenethyl-1H-tetrazol-5-yl)methyl)-5,7-dimethylquinolin-2(1H)-one]", "values": [{"measurement": "modulation of glutamate transport in cultured astrocytes", "setting": "[6]; cultured rat astrocytes, negative control", "value": "inactive"}]}, {"molecule": "COc1ccc(C2C(C#N)=C(N)OC3=C2C(=O)CC(c2cccc4ccccc24)C3)cc1", "note": "(stereo not drawn) [UCPH-101, 2-Amino-5,6,7,8-tetrahydro-4-(4-methoxyphenyl)-7-(naphthalen-1-yl)-5-oxo-4H-chromene-3-carbonitrile, reference compound]", "values": [{"measurement": "inhibition of glutamate uptake in cultured glial cells by selective EAAT inhibitors", "setting": "[6]; 50 nM 3H-L-glutamate", "value": "partial inhibition"}]}, {"molecule": "O=C(c1ccc(S(=O)(=O)N2CCCC2)cc1)N1CCN(c2nc(-c3ccccc3)nc3sc4c(c23)CCC4)CC1", "note": "[GT988, (4-(2-phenyl-6,7-dihydro-5H-cyclopenta [4,5]thieno[2,3-d]pyrimidin-4-yl)piperazin-1-yl)(4-(pyrrolidin-1-ylsulfonyl)phenyl) methanone]", "values": [{"measurement": "kind of modulation of EAAT2 glutamate uptake in dose-response assays", "setting": "[1]", "value": "no effect"}]}, {"molecule": "C=CCN1CC(c2nc3ccccc3n2CCCCOc2ccc(C)c(C)c2)CC1=O", "note": "(stereo not drawn) [GT938, 1-allyl-4-(1-(4-(3,4-dimethylphenoxy)butyl)-1H-benzo[d]imidazol-2-yl)pyrrolidin-2-one]", "values": [{"measurement": "kind of modulation of EAAT2 glutamate uptake in dose-response assays", "setting": "[1]", "value": "inhibitors"}]}, {"molecule": "Cc1ccc(C)c2[nH]c(=O)c(C(c3nnnn3CCc3ccccc3)N3CCN(Cc4ccc5c(c4)OCO5)CC3)cc12", "note": "(stereo not drawn) [GT867, 3-((4-(benzo[d][1,3]dioxol-5-ylmethyl)piperazin-1-yl)(1-phenethyl-1H-tetrazol-5-yl)methyl)-5,8-dimethylquinolin-2(1H)-one]", "values": [{"measurement": "kind of modulation of EAAT2 glutamate uptake in dose-response assays", "setting": "[1]", "value": "no effect"}]}, {"molecule": "COc1ccc2[nH]c(=O)c(C(c3nnnn3CCc3ccccc3)N3CCN(c4cccc(C(F)(F)F)c4)CC3)cc2c1", "note": "(stereo not drawn) [GT951, 6-methoxy-3-((1-phenethyl-1H-tetrazol-5-yl)(4-(3-(trifluoromethyl)phenyl)piperazin-1-yl)methyl)quinolin-2(1H)-one]", "values": [{"measurement": "effect on NMDA-induced calcium response", "setting": "[2]", "value": "no effects"}, {"measurement": "EC50", "setting": "[6]; Rattus norvegicus, Astrocyte, cultured rat astrocytes, 50 nM 3H-L-glutamate, read-out: potency (EC50) of glutamate uptake enhancement in cultured astrocytes", "value": "0.3 ± 0.2", "unit": "nM"}, {"measurement": "efficacy of augmentation of glutamate transport in cultured astrocytes", "setting": "[6]; cultured rat astrocytes", "value": "~27", "unit": "%"}, {"measurement": "effect on EAAT1-mediated glutamate transport", "setting": "[4]", "value": "no effect"}, {"measurement": "effect on EAAT3-mediated glutamate transport", "setting": "[5]", "value": "no effect"}]}]}
